Reference: paper PMC6508677, “Identification of druggable small molecule antagonists of the Plasmodium falciparum hexose transporter PfHT and assessment of ligand access to the glucose permeation pathway via FLAG-mediated protein engineering” (PLoS ONE, 2019)
Where “and” joins values, the source holds several entries; their conditions need not be identical. Equal values may be shown once. Read-outs that look alike come from different tables or passages of the source.

What was measured:
PfHT [1] = biological target: T1, PfHT (Plasmodium falciparum, UniProt Q7KWJ5); assay: Kinetic analysis of 2-DG uptake (Km) in HEK293 cells overexpressing PfHT
T1 sequence (Q7KWJ5 1-504): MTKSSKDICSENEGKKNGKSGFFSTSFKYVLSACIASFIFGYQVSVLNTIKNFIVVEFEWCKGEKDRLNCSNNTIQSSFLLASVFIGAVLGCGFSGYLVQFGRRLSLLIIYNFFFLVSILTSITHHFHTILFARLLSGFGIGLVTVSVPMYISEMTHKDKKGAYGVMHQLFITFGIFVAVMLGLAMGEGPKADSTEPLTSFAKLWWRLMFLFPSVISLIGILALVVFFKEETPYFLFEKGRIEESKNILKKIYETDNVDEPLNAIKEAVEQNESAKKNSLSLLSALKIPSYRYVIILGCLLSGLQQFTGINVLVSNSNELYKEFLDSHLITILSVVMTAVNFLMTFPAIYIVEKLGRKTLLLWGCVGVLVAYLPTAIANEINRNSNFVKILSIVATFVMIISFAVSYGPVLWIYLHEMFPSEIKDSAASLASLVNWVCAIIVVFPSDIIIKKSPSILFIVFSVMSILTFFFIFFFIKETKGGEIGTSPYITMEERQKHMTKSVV
Protocol: (§3) Glucose uptake by P. falciparum was performed essentially as described [23]. P. falciparum strain 3D7 was cultured in 100 mm tissue culture dishes (Techno Plastic Products) in a 2% suspension of human erythrocytes and RPMI 1640 medium until reaching > 7.5% parasitemia. Cells were pelleted via centrifugation and resuspended in RPMI 1640 medium. To determine the uptake of radiolabeled glucose into the parasite, parasites were isolated from infected erythrocytes by permeablization with saponin (0.05 w/v), followed by centrifugation, aspiration of supernatant and washing of the pellet 3X with saline solution (135 mM NaCl, 2 mM KCl, 25 mM HEPES, 0.2 mM glucose and 1 mM MgCl2; pH 7.1) to remove cellular debris. WU-1 or DMSO vehicle were added to 100 μl parasites (resuspended in saline) 5 min prior to the addition of 100 μl [^14C]2-DOG (0.2- μCi/ml final concentration). 2-DG uptake was stopped after 2 min by layering the entire reaction over 300 μl of an oil mixture (5:4 mix of dibutyl phthalate / dinonyl phthalate) in Eppendorf tubes and centrifuged at 15,850 × g for 2 mins. The ratio of the estimated intracellular concentration of radiolabel relative to the extracellular concentration were calculated as described [23]. Uptake of radiolabeled hexose into HEK293 cells was measured in glucose-free HBSS as described previously [24]. Briefly, cells were plated at 400,000 cells/well overnight at 37°C in 24-well plates pre-treated with PEI. After 30-min incubation at 37°C in glucose-free HBSS in the presence of vehicle or increasing concentrations of compound, 2-DG uptake was measured in glucose-free HBSS for 4 min at 37°C. Cultures were washed in ice-cold 1X PBS and lysed in 0.1% Triton X-100 in 1X PBS. Radiolabeled hexose uptake was determined by liquid scintillation counting (Ultima Gold, Thermo Fisher) and normalized to total protein per well. Uptake data are plotted as percent uptake relative to vehicle-treated cells. Kinetic analyses were performed using the indicated concentrations of substrate and WU-1, with quenching of uptake after 1 min incubation. […] Data were fit by least squares nonlinear regression analysis using GraphPad Prism 6.0 software.

FTPfHT [2] = biological target: T2, FTPfHT (Plasmodium falciparum, UniProt Q7KWJ5); assay: Kinetic analysis of 2-DG uptake (Km) in HEK293 cells overexpressing FTPfHT; format: cell-based; parameters: the 38–40 kDa band represents full length PfHT; expressed in transfected cells; host or cells: HEK293-FLIP (HEK293); details: average of Expt 1-3
T2 sequence (Q7KWJ5 1-504): T1 sequence (Q7KWJ5 1-504)
Protocol: (§4) Glucose uptake by P. falciparum was performed essentially as described [23]. P. falciparum strain 3D7 was cultured in 100 mm tissue culture dishes (Techno Plastic Products) in a 2% suspension of human erythrocytes and RPMI 1640 medium until reaching > 7.5% parasitemia. Cells were pelleted via centrifugation and resuspended in RPMI 1640 medium. To determine the uptake of radiolabeled glucose into the parasite, parasites were isolated from infected erythrocytes by permeablization with saponin (0.05 w/v), followed by centrifugation, aspiration of supernatant and washing of the pellet 3X with saline solution (135 mM NaCl, 2 mM KCl, 25 mM HEPES, 0.2 mM glucose and 1 mM MgCl2; pH 7.1) to remove cellular debris. […] The ratio of the estimated intracellular concentration of radiolabel relative to the extracellular concentration were calculated as described [23]. Uptake of radiolabeled hexose into HEK293 cells was measured in glucose-free HBSS as described previously [24]. […] After 30-min incubation at 37°C in glucose-free HBSS in the presence of vehicle or increasing concentrations of compound, 2-DG uptake was measured in glucose-free HBSS for 4 min at 37°C. […] Radiolabeled hexose uptake was determined by liquid scintillation counting (Ultima Gold, Thermo Fisher) and normalized to total protein per well. […]

FTPfHT [3] = biological target: T2, FTPfHT; assay: 2-DG uptake by HEK293 cells overexpressing FLAG-tagged PfHT (FTPfHT); format: cell-based; parameters: the 38–40 kDa band represents full length PfHT; expressed in transfected cells; host or cells: HEK293-FLIP (HEK293); key to 2-DG Uptake AVE: % uptake relative to vehicle-treated cells
Excerpt: (§1) Generation of HEK293 cells overexpressing PfHT and human GLUTs 1–4 were described elsewhere. Briefly, HEK293 cells were transfected with pcDNA3.1 FLII12Pglu-7006 (Addgene), containing the fluorescence resonance energy transfer (FRET) glucose sensor (HEK293-FLIP) and PfHT, human GLUT1 (hGLUT1), hGLUT2, hGLUT3, hGLUT4, hGLUT5 or hGLUT8 using Optifect (Life Technologies) according to manufacturer’s specifications. To increase retention of GLUT8 at the plasma membrane, the dileucine sorting signal E^7E^8XXXLL was modified to R^7R^8XXXLL as described in [17]. Stable transfectants were selected for G418 and hygromycin resistance to select for FRET sensor and hexose transporter, respectively. HEK293-FLIP cells were also used to generate cells stably transfected with FLAG-tagged PfHT (FTPfHT). FLAG tag ([…]) followed by a triple glycine linker and a tobacco etch virus (TEV) protease site (ENLYFQS) followed by a triple glycine linker was added to the N-terminus of PfHT via PCR [18] using Phusion Hot Start II High-Fidelity DNA Polymerase (Fisher Scientific). Single clones were selected by comparing their abilities to transport glucose as assayed via FRET and radiolabeled hexose uptake. In all cell lines, except for HEK293 cells overexpressing hGLUT1 and hGLUT5, native hGLUT1 was knocked down using shRNA as described elsewhere. Transcript levels of the individual GLUTs expressed in each cell line are as described in [13, 15] and in S1 Fig.
(§2) Glucose uptake by P. falciparum was performed essentially as described. P. falciparum strain 3D7 was cultured in 100 mm tissue culture dishes (Techno Plastic Products) in a 2% suspension of human erythrocytes and RPMI 1640 medium until reaching > 7.5% parasitemia. Cells were pelleted via centrifugation and resuspended in RPMI 1640 medium. To determine the uptake of radiolabeled glucose into the parasite, parasites were isolated from infected erythrocytes by permeablization with saponin (0.05 w/v), followed by centrifugation, aspiration of supernatant and washing of the pellet 3X with saline solution (135 mM NaCl, 2 mM KCl, 25 mM HEPES, 0.2 mM glucose and 1 mM MgCl2; pH 7.1) to remove cellular debris. WU-1 or DMSO vehicle were added to 100 μl parasites (resuspended in saline) 5 min prior to the addition of 100 μl [^14C]2-DOG (0.2- μCi/ml final concentration). 2-DG uptake was stopped after 2 min by layering the entire reaction over 300 μl of an oil mixture (5:4 mix of dibutyl phthalate / dinonyl phthalate) in Eppendorf tubes and centrifuged at 15,850 × g for 2 mins. The ratio of the estimated intracellular concentration of radiolabel relative to the extracellular concentration were calculated as described. Uptake of radiolabeled hexose into HEK293 cells was measured in glucose-free HBSS as described previously. Briefly, cells were plated at 400,000 cells/well overnight at 37°C in 24-well plates pre-treated with PEI. After 30-min incubation at 37°C in glucose-free HBSS in the presence of vehicle or increasing concentrations of compound, 2-DG uptake was measured in glucose-free HBSS for 4 min at 37°C. Cultures were washed in ice-cold 1X PBS and lysed in 0.1% Triton X-100 in 1X PBS. Radiolabeled hexose uptake was determined by liquid scintillation counting (Ultima Gold, Thermo Fisher) and normalized to total protein per well. Uptake data are plotted as percent uptake relative to vehicle-treated cells. Kinetic analyses were performed using the indicated concentrations of substrate and WU-1, with quenching of uptake after 1 min incubation. Incubation times had been previously determined as being in the linear range of time-dependent radiolabeled hexose uptake (2 min for 2-DG uptake into freed parasites; 2 and 4 min for D-Frc and 2-DG uptake HEK cell lines, respectively). Data were fit by least squares nonlinear regression analysis using GraphPad Prism 6.0 software.

PfHT [4] = biological target: T1, PfHT; assay: 2-DG uptake by HEK293 cells overexpressing PfHT; format: cell-based; parameters: expressed in transfected cells; host or cells: HEK293 (HEK293-FLIP, native hGLUT1 knocked down by shRNA)
Excerpt: as §1, §2

GLUT1 Y293I = test system: GLUT1 Y293I; parameters: method as in PMID 8157690; details: GLUT1 Y293I vs wild type; cited from earlier work
blood stage parasites = test system: blood stage parasites; parameters: method as in PMID 26248369; details: read-out: IC50 against blood stage parasites; cited from earlier work
[5] = substrate: O=CC[C@@H](O)[C@H](O)[C@H](O)CO; assay: cells, lysate or membranes; format: cell-based, Plasmodium falciparum; details: other: 2-DG uptake (1 min), FTPfHT; pH 7.1; 37.0 °C
Protocol: as §4

[6] = substrate: O=CC[C@@H](O)[C@H](O)[C@H](O)CO; assay: cells, lysate or membranes; details: other: 2-DG uptake (1 min), PfHT; pH 7.1; 37.0 °C
Protocol: as §3

## O=C(CO)[C@@H](O)[C@H](O)[C@H](O)CO [D-frc]
PfHT [1]; average of Expt 1-3
  Km (1/v) D-frc uptake: AVE IC50: 1830 µM
PfHT [1]; single experiments Expt 1-3
  Km (1/v) D-frc uptake: IC50: 2500 µM and 1600 µM and 1380 µM
FTPfHT [2]
  Km (1/v) D-frc uptake: AVE IC50: 2070 µM

## CC1OC[C@H]2O[C@H](O)[C@H](O)[C@@H](O)[C@@H]2O1 (stereo partly drawn) [Ethylideneglucose, 4,6-O-ethylidene-α-D-glucose, reference compound]
FTPfHT [3]; FTPfHT, 2-DG Uptake, single experiments Expt 1-3, read-out: IC50
  IC50: 1490 µM and 1830 µM and 1170 µM
FTPfHT [3]; FTPfHT, concentration 0.001 mM, Expt 1-3
  2-DG Uptake AVE: 100.00
FTPfHT [3]; FTPfHT, concentration 0.0390625 mM
  2-DG Uptake AVE: 96.35
FTPfHT [3]; FTPfHT, concentration 0.078125 mM
  2-DG Uptake AVE: 89.02 and 99.10 and 95.29
FTPfHT [3]; FTPfHT, concentration 0.15625 mM
  2-DG Uptake AVE: 83.11 and 96.24 and 85.58
FTPfHT [3]; FTPfHT, concentration 0.3125 mM
  2-DG Uptake AVE: 83.21 and 82.95 and 84.08
FTPfHT [3]; FTPfHT, concentration 0.63 mM
  2-DG Uptake AVE: 73.60 and 68.20 and 76.54
FTPfHT [3]; FTPfHT, concentration 1.25 mM
  2-DG Uptake AVE: 62.34 and 52.24 and 56.96
FTPfHT [3]; FTPfHT, concentration 2.5 mM
  2-DG Uptake AVE: 40.70 and 31.77 and 32.91
FTPfHT [3]; FTPfHT, concentration 5 mM
  2-DG Uptake AVE: 18.95 and 15.78 and 18.06
FTPfHT [3]; FTPfHT, concentration 10 mM
  2-DG Uptake AVE: 13.87 and 9.18 and 10.65
FTPfHT [3]; FTPfHT, concentration 20 mM
  2-DG Uptake AVE: 7.63 and 6.14 and 7.00
FTPfHT [3]; FTPfHT, concentration 40 mM
  2-DG Uptake AVE: 5.44 and 4.46 and 5.15
FTPfHT [3]; FTPfHT, concentration 80 mM
  2-DG Uptake AVE: 5.14 and 3.60
FTPfHT [3]; read-out: IC50 for inhibition of 2-DG uptake, HEK293 cells overexpressing FTPfHT
  IC50: 1500 ± 200 µM
PfHT [4]; PfHT, 2-DG Uptake, average of Expt 1-3, read-out: AVE IC50
  IC50: 5790 µM
PfHT [4]; PfHT, 2-DG Uptake, single experiments Expt 1-3, read-out: IC50
  IC50: 5990 µM
PfHT [4]; PfHT, concentration 0.001 mM, Expt 1-3
  2-DG Uptake AVE: 100.00
PfHT [4]; PfHT, concentration 0.3125 mM
  2-DG Uptake AVE: 94.37 and 96.75 and 86.10
PfHT [4]; PfHT, concentration 0.625 mM
  2-DG Uptake AVE: 89.78 and 84.91 and 77.97
PfHT [4]; PfHT, concentration 1.25 mM
  2-DG Uptake AVE: 82.38 and 77.88 and 79.22
PfHT [4]; PfHT, concentration 2.5 mM
  2-DG Uptake AVE: 70.45 and 76.21 and 65.14
PfHT [4]; PfHT, concentration 5 mM
  2-DG Uptake AVE: 56.80 and 57.04 and 54.41
PfHT [4]; PfHT, concentration 10 mM
  2-DG Uptake AVE: 38.62 and 35.32 and 38.49
PfHT [4]; PfHT, concentration 20 mM
  2-DG Uptake AVE: 25.77 and 23.49 and 21.21
PfHT [4]; PfHT, concentration 40 mM
  2-DG Uptake AVE: 17.24 and 14.68 and 18.76
PfHT [4]; PfHT, concentration 80 mM
  2-DG Uptake AVE: 11.01 and 10.15 and 11.14
PfHT [4]; PfHT, concentration 160 mM
  2-DG Uptake AVE: 6.85 and 7.66 and 8.85
PfHT [4]; PfHT, concentration 320 mM
  2-DG Uptake AVE: 4.36 and 4.29 and 5.25
PfHT [4]; read-out: IC50 for inhibition of 2-DG uptake, HEK293 cells overexpressing PfHT
  IC50: 5900 ± 150 µM
GLUT1 Y293I
  decrease of Ki by Y293I mutation: > 2 fold

## Cc1cccc(C)c1OCC(=O)N[C@@H](Cc1ccccc1)[C@@H](O)C[C@H](Cc1ccccc1)NC(=O)[C@H](C(C)C)N1CCCNC1=O [lopinavir]
Blood stage parasites
  IC50: 16 µM

B1: FTPfHT (Plasmodium falciparum 3D7) (protein)
chain: T1 sequence (Q7KWJ5 1-504)
notes: the 38–40 kDa band represents full length PfHT; expressed in transfected cells; host or cells: HEK293-FLIP (HEK293)
[5]
  Km: 2100 ± 500 µM

B2: PfHT (Plasmodium falciparum 3D7) (protein)
chain: T1 sequence (Q7KWJ5 1-504)
[6]
  Km: 1800 ± 300 µM
